Converted amounts (≈) assume the structure as drawn. Where only a bound is given, the exact number is not on record here.

This passage reports MIC and LD50 results from ChEMBL document CHEMBL3045756, “Design, synthesis, antifungal activity, and ADME prediction of functional analogues of terbinafine” (Med Chem Res, 2009).

The subject of one data set is Candida albicans. In words: Antifungal activity against Candida albicans NCIM 3557 after 48 hr by agar streak dilution method. In kind it is functional. The conditions noted are these: NCIM 3557, 48 h.
Data set [1] can be described thus: Acute toxicity in po dosed Mus musculus (mouse). In kind it is organism-based. As to conditions: in vivo.

The MIC is the lowest concentration that inhibits growth of the organism. As for `CN(Cc1cc2ccccc2o1)Cc1cccc2cccnc12`, the MIC against Candida albicans was over 100 µg/mL.

A word on the LD50: it is the dose expected to kill half of the subjects tested. A low value points to greater toxicity. The molecule `CN(Cc1cccc2cccnc12)Cc1cccc2cccnc12` gave an MIC in the data set with Candida albicans of 4 µg/mL (≈ 12.8 µM). The molecule also yielded an LD50 in data set [1] of 700 mg/kg.

Molecule `CN(Cc1ccc2ccccc2c1)Cc1cccc2cccnc12` registered an MIC in the data set on Candida albicans of 8 µg/mL (≈ 25.6 µM). This molecule showed an LD50 in data set [1] of over 2000 mg/kg.

`CN(Cc1ccc(-c2ccccc2C#N)cc1)Cc1cccc2cccnc12` had an MIC in the data set on Candida albicans of over 100 µg/mL.

In the data set with Candida albicans, `CN(Cc1ccc([N+](=O)[O-])cc1)Cc1cccc2cccnc12` came in with an MIC of 25 µg/mL (≈ 81.3 µM). In data set [1], this molecule returned an LD50 of over 2000 mg/kg.

For `CN(Cc1ccc(Cl)cc1)Cc1cccc2cccnc12`, the MIC in the data set with Candida albicans was found to be 75 µg/mL (≈ 253 µM).

Take `CN(Cc1nc2cc(Cl)ccc2[nH]1)Cc1cccc2cccnc12`: the MIC in the data set on Candida albicans was 10 µg/mL (≈ 29.7 µM). This molecule yielded an LD50 in data set [1] of over 2000 mg/kg.

In the data set on Candida albicans, `CN(Cc1nc2cc([N+](=O)[O-])ccc2[nH]1)Cc1cccc2cccnc12` had an MIC of 25 µg/mL (≈ 72 µM). In data set [1], the LD50 is over 2000 mg/kg.

On to `Cc1ccc2[nH]c(CN(C)Cc3cccc4cccnc34)nc2c1`, for which the minimal inhibitory concentration (MIC) in the data set on Candida albicans was over 100 µg/mL.

Take `CN(Cc1nc2ccccc2[nH]1)Cc1cccc2cccnc12`: the MIC in the data set on Candida albicans came to 40 µg/mL (≈ 132 µM).
